{"source": "patent US20120308673A1", "about": "“COMPOSITION COMPRISING THE EXTRACT OF PRUNELLA VULGARIS L. FOR PREVENTING AND TREATING ADHD DISEASE AND THE USE THEREOF” (priority 2009, published 2012)", "key": {"SHR animal model [1]": {"system": "SHR animal model", "assay": "Effect on alternation behavior of SHR animal model (modified Y-maze test)", "format": "in vivo, rat", "settings": "8 min period, dose dependent, p<0.05, FIG. 3", "method": "To test the inhibitory effect of the extract of […] prepared in Example 1 on the alternation behavior of SHR animals, following modified Y-maze test was performed according to the procedure disclosed in the literature (Sarter M., et al., Attenuation of scopolamine-induced impairment of spontaneous alternation by antagonist but not agonist and agonist beta-carbolines, (1988), Psychopharmacology (Berl). 94:491-495; Kim D. H. et al, Gomisin A improves scopolamine-induced memory impairment in mice, (2006), Eur. J. Pharmacol., 542:129-235).\nThe Y-maze test was conducted in a three-arm maze with angles of 120° between the arms designates as A, B and C respectively, which were 42 cm long and 3 cm wide with walls that were 12 cm high each. The maze floor and walls were constructed from dark opaque polyvinyl plastic. Mice were initially placed within one arm and the sequence and number of arm entries were recorded manually for each mouse over an 8 min period. The percentage of triads in which all the arms were represented, i.e., ABC, CAB or BCA but not BAB, was recorded as an ‘alternation’ to estimate short-term memory. Control group animals received 0.9% saline solution and scopolamine (1 mg/kg, i.p.) or vehicle was introduced to induce memory impairment 30 mins before the test. […] The alternation score (%) for each mouse was calculated according to following math formula 1: […]"}, "SHR animal model [2]": {"system": "SHR animal model", "assay": "Effect on hyperactivity of SHR animal model (total movement distance and duration in test box)", "format": "in vivo, rat", "settings": "3 mg/kg intraperitoneally, 30 mins after treatment, recorded for 10 mins", "method": "To test the inhibitory effect of the extract of […] prepared in Example 1 on the hyperactivity of SHR animals, following test was performed according to the procedure disclosed in the literature (Kong, W. X et al., Effect on taurine on rat behaviors in three anxiety models, (2006), Pharmacology Biochem., Behavior 83:271-276; Arulmozhi D. K. et al, Pharmacological studies of the aqueous extract of Sapindus trifoliatus on central nervous system: possible ant-migraine mechanism, J. Ethnophamacol., 97:491-496).\nThe rats were acclimated with the environment for 1 week and with apparatus more than once for 10 mins prior to test. PV70E and PVW prepared in Example 1 used as test groups as well as methylphenidate (Johnson Mattey Public Limited Co.) used as a positive control were intraperitoneally administered into mice in a dose of 3 mg/kg.\n30 mins after the treatment with test samples, the SHR mice, i.e., ADHD animal models, and normal mice used as negative control were placed on the test box to examine the movement of mice and to determine the total movement distance and total movement duration of the mice for 10 mins using by analysis apparatus (EthoVision system; Noldus IT b.v., Netherland)."}}, "data": [{"molecule": "COC(=O)C(c1ccccc1)C1CCCCN1", "note": "(stereo not drawn) [methylphenidate]", "values": [{"measurement": "alternation behavior of SHR", "setting": "SHR animal model [1]", "result": "inhibiting effect"}, {"measurement": "general movement of SHR (total movement distance and rearing number)", "setting": "SHR animal model [2]; SHR, FIGS. 1 and 2", "result": "did not affect"}, {"measurement": "movement of normal mice", "setting": "SHR animal model [2]; normal mice", "result": "increased the movement"}]}]}
